Laboratory results taken from patent US20180221296A1, “INTRASITE ADMINISTRATION AND DOSING METHODS AND PHARMACEUTICALS FOR USE THEREIN” (HKL Medical, LLC, priority 2017, published 2018).
Like-named read-outs stand apart in the source and are kept apart here.

Key:
[1] = cited from earlier work
[2] = in vivo; cited from earlier work
[3] = Intrasite vancomycin pharmacodynamics trial: systemic circulation serum vancomycin concentration; type: in vivo, human; conditions: all measured time-points, single IS dose (2 mg/cm^2; moderate doses); detectability limit printed >1.7 μg/ml
Experimental: (§1) Intrasite Vancomycin Pharmacodynamics Trial.
Intrasite Dosing of Vancomycin.
Systemic Circulation Serum Vancomycin Concentrations after IS Dose. In all of the 10 patients of the 2 mg/cm^2 dose cohort serum vancomycin levels remained undetectable at all measured time-points after a single IS dose. Detectability limit in these experiments was >1.7 μg/ml. This is interpreted as a strong indicator of safety with regard to systemic side effects and toxicities as well as evidence of a very wide therapeutic index when vancomycin is administered IS. This strongly contrasts to the higher probability of systemic toxicity and narrow therapeutic index when vancomycin is administered IV.

[4] = Intrasite vancomycin pharmacodynamics trial: wound seroma vancomycin levels via wound drain
Experimental: Intrasite Vancomycin Pharmacodynamics Trial. A single dose cohort pharmacodynamics trial was performed under FDA IND# 117494, the first FDA IND awarded for intrasite vancomycin. This dose cohort involved administration of a low dose of intrasite lyophilized vancomycin into complex instrumented spinal surgery wounds in adult patients. At multiple specific time points after surgery measurements were taken of vancomycin and […] levels in the blood stream and from the wound seroma fluid (via the wound drain). Measurements of endotoxin levels within the blood stream and seroma fluid were also taken at the same time points following surgery. All personnel present during administration of IS vancomycin were required to wear a certified fit N-90 mask to prevent inhalation of aerosolized vancomycin powder, which is a known safety risk for pulmonary fibrosis.
Intrasite Dosing of Vancomycin. Intrasite dosing was based on the surface area of the wound (tissues within the spinal wound lying deep to the skin). Wound surface area was estimated by a wound Length×Depth×2 calculation where length and mean depth were measured directed by the surgeon after surgical opening of the wound was completed. To assure safety, the maximum IS dose of vancomycin given to patients in this cohort was limited to well below the normal maximum safe IV dose of 2.5 g. Given that maximum wound surface areas created in spinal deformity patients are on the order of 1000 cm^2, a surface area dose of 2 mg/cm^2 provides for a maximum single dose of ˜2 g IS vancomycin, considered safe even if the entire dose absorbed into the circulation. To improve the homogeneity of IS dose application one third of the total calculated dose was delivered to the subepidermal tissues of the wound, superficial to the perimuscular fascia, one third of the total dose was applied to the subfascial muscle, bone, and other tissues, and one third of the total dose was milled with the bone graft before implantation.
Wound Vancomycin Levels Following a Single Intrasite Dose. Wound seroma vancomycin levels were measured via the wound drain at multiple time points for 4 days after a single intrasite dose given at the conclusion of surgery. […] However, vancomycin is a time-dependent killer of microbes and levels must exceed kill concentrations for up to 48 hrs to be completely effective.

[5] = system: Vancomycin-Resistant Staphylococcus aureus (VRSA); conditions: certain strains of VRSA; cited from earlier work
[6] = Intrasite vancomycin pharmacodynamics trial: adverse reactions; type: in vivo, human; conditions: IS dose 2 mg/cm^2, spinal surgery patients
Source text: as §1
Adverse Reactions to IS Vancomycin. […] There was one example of a post-operative gram-negative bacterial surgical site infection which could not have been prevented by vancomycin because its spectrum of antimicrobial effects dies not cover this organism.

[7] = measured at 2 hrs after single IS dose 2 mg/cm^2, 10 patients
[8] = single IS dose 2 mg/cm^2, 10 patients
[9] = within the first 48 hrs after single IS dose 2 mg/cm^2, 10 patients

## CO[C@H]1/C=C/O[C@@]2(C)Oc3c(C)c(O)c4c(O)c(c5c(nc6cc(C)ccn65)c4c3C2=O)NC(=O)/C(C)=C\C=C\[C@H](C)[C@H](O)[C@@H](C)[C@@H](O)[C@@H](C)[C@H](OC(C)=O)[C@@H]1C [Rifaximin]
[1]; in vivo, po
  oral bioavailability: < 0.4%

## NC[C@H]1CC[C@H](C(=O)O)CC1 [TXA, trans-4-[aminomethyl]cyclohexanecarboxylic acid]
[1]; oral
  oral bioavailability: 34%
[2]
  half-life in the blood stream: approximately 2 hrs

## CN[C@H](CC(C)C)C(=O)N[C@H]1C(=O)N[C@@H](CC(N)=O)C(=O)N[C@H]2C(=O)N[C@H]3C(=O)N[C@H](C(=O)N[C@H](C(=O)O)c4cc(O)cc(O)c4-c4cc3ccc4O)[C@H](O)c3ccc(c(Cl)c3)Oc3cc2cc(c3O[C@@H]2O[C@H](CO)[C@@H](O)[C@H](O)[C@H]2O[C@H]2C[C@](C)(N)[C@H](O)[C@H](C)O2)Oc2ccc(cc2Cl)[C@H]1O [vancomycin]
[3]
  serum vancomycin level after IS dose: undetectable
[4]; [7]
  highest vancomycin concentration, subfascial wound compartment: 952 µg/mL
  highest vancomycin concentration, suprafascial wound compartment: 6110 µg/mL
[4]; moderate IS doses, also with seroma fluid removed via drains, preliminary evidence
  time vancomycin remains in high enough wound concentration for efficient suppression of gram-positive microorganisms: at least 4 days
[4]; [8]
  time mean subfascial vancomycin concentration exceeds threshold to kill VRSA (128 μg/ml): less than 24 hrs
  time mean suprafascial vancomycin concentration exceeds threshold to kill VRSA (128 μg/ml): more than 48 hrs
[4]; [9]
  lowest vancomycin concentration, subfascial wound compartment: 4.1 µg/mL
  lowest vancomycin concentration, suprafascial wound compartment: 16.2 µg/mL
[5]
  minimum 90% bactericidal concentration (MBC^90): 64 µg/mL
[6]
  adverse reactions related to IS vancomycin: no patient- or practitioner-identified adverse reactions
